Experimental data: the supplement of paper PMC11061612

Legend:
Test in all cases: combination Emax (second highest fraction inhibited in the dose matrix, 72 h); higher = more inhibition; extreme values may be limits of the assay
[1] = system: NCI-H520 (Squamous Cell Lung Carcinoma)
Summary of the method: (§1)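 Bliss excess equals the observed combination effect minus the expected value EA + EB − EA·EB, where EA and EB are the effects of each agent alone. Combination Emax is the second-highest inhibition within the matrix. Inhibition was scaled from CellTiter-Glo 2.0 luminescence, with 0 set by vehicle wells and 1 by blank wells, after 72 hours of two-drug dosing of cells plated in 1536-well plates.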

[2] = system: SK-GT-4 (Esophageal Adenocarcinoma)
Summary of the method: as §1

[3] = system: T-T (Esophageal Squamous Cell Carcinoma)
Summary of the method: as §1

[4] = system: OCI-AML3 (Acute Myeloid Leukemia)
Summary of the method: as §1

[5] = system: DMS-114 (Small Cell Lung Carcinoma)
Summary of the method: as §1

[6] = system: KU812 (Chronic Myelogenous Leukemia)
Summary of the method: as §1

[7] = system: NCI-H526 (Small Cell Lung Carcinoma)
Summary of the method: as §1

[8] = system: KYSE-270 (Esophageal Squamous Cell Carcinoma)
Summary of the method: as §1

[9] = system: MN-60 (B-Lymphoblastic Leukemia)
Summary of the method: as §1

[10] = system: SJSA-1 (Osteosarcoma)
Summary of the method: as §1

[11] = system: NCCIT (Other Solid Carcinomas)
Summary of the method: as §1

[12] = system: NCI-H3122 (Lung Adenocarcinoma)
Summary of the method: as §1

[13] = system: MOG-G-CCM (Low Grade Glioma)
Summary of the method: as §1

[14] = system: NCI-H929 (Plasma Cell Myeloma)
Summary of the method: as §1

[15] = system: ST486 (Burkitt's Lymphoma)
Summary of the method: as §1

[16] = system: CW-2 (Colorectal Carcinoma)
Summary of the method: as §1

[17] = system: KP-3 (Pancreatic Carcinoma)
Summary of the method: as §1

[18] = system: M059J (Glioblastoma)
Summary of the method: as §1

[19] = system: COR-L279 (Small Cell Lung Carcinoma)
Summary of the method: as §1

[20] = system: VMRC-RCZ (Kidney Carcinoma)
Summary of the method: as §1

SMILES	combination Emax [1]	combination Emax [2]	combination Emax [3]	combination Emax [4]	combination Emax [5]	combination Emax [6]	combination Emax [7]	combination Emax [8]	combination Emax [9]	combination Emax [10]	combination Emax [11]	combination Emax [12]	combination Emax [13]	combination Emax [14]	combination Emax [15]	combination Emax [16]	combination Emax [17]	combination Emax [18]	combination Emax [19]	combination Emax [20]
C=CCn1c(=O)c2cnc(Nc3ccc(N4CCN(C)CC4)cc3)nc2n1-c1cccc(C(C)(C)O)n1 [AZD1775] + CCc1c2c(nc3ccc(O)cc13)-c1cc3c(c(=O)n1C2)COC(=O)[C@]3(O)CC [SN-38] (first compound max 1 µM, partner max 0.3 µM)	0.808	0.486	0.776	0.922	0.655	0.87	1	0.981	0.818	0.706	0.841	0.853	0.703	0.927	0.997	0.625	0.397	0.891	1	0.462
CN(CCO)CC[C@H](CSc1ccccc1)Nc1ccc(S(=O)(=O)NC(=O)c2ccc(N3CCC([C@@H](O)c4ccccc4-c4ccc(Cl)cc4)CC3)cc2)cc1S(=O)(=O)C(F)(F)F [AZD4320] + CC(=O)O[C@H]1C(=O)[C@@]2(C)[C@H]([C@H](OC(=O)c3ccccc3)[C@]3(O)C[C@H](OC(=O)[C@H](O)[C@@H](NC(=O)c4ccccc4)c4ccccc4)C(C)=C1C3(C)C)[C@]1(OC(C)=O)CO[C@@H]1C[C@@H]2O [Paclitaxel] (first compound max 1 µM, 7x7, partner max 3 µM)	0.944	0.894	0.92	1	0.879	0.943	1	0.913	0.546	0.967	0.989	0.999	0.996	0.926	1	0.608	0.8	0.974	1	0.693
CN(CCO)CC[C@H](CSc1ccccc1)Nc1ccc(S(=O)(=O)NC(=O)c2ccc(N3CCC([C@@H](O)c4ccccc4-c4ccc(Cl)cc4)CC3)cc2)cc1S(=O)(=O)C(F)(F)F [AZD4320] + CS(=O)(=O)CCNCc1ccc(-c2ccc3ncnc(Nc4ccc(OCc5cccc(F)c5)c(Cl)c4)c3c2)o1 [Lapatinib] (first compound max 1 µM, 7x7, partner max 10 µM)	0.57	0.774	0.935	0.884	0.36	0.973	0.995	0.708	0.206	0.332	0.243	0.281	0.729	0.589	0.96	0.593	0.363	0.705	1	0.598
Cc1c2c(nn1C)CSCc1cc(n(C)n1)CSc1cc(c3ccccc3c1)OCCCc1c(C(=O)O)n(C)c3c-2c(Cl)ccc13 [AZD5991] + CC(=O)O[C@H]1C(=O)[C@@]2(C)[C@H]([C@H](OC(=O)c3ccccc3)[C@]3(O)C[C@H](OC(=O)[C@H](O)[C@@H](NC(=O)c4ccccc4)c4ccccc4)C(C)=C1C3(C)C)[C@]1(OC(C)=O)CO[C@@H]1C[C@@H]2O [Paclitaxel] (first compound max 1 µM, 7x7, partner max 3 µM)	0.769	0.454	0.989	1	0.944	0.918	1	0.962	0.539	0.725	0.984	0.965	0.936	1	0.994	0.497	0.365	0.865	0.997	0.358
Cc1c2c(nn1C)CSCc1cc(n(C)n1)CSc1cc(c3ccccc3c1)OCCCc1c(C(=O)O)n(C)c3c-2c(Cl)ccc13 [AZD5991] + CS(=O)(=O)CCNCc1ccc(-c2ccc3ncnc(Nc4ccc(OCc5cccc(F)c5)c(Cl)c4)c3c2)o1 [Lapatinib] (first compound max 1 µM, 7x7, partner max 10 µM)	0.435	0.379	0.988	0.985	0.608	0.867	0.469	0.959	0.158	0.196	0.635	0.392	0.358	1	0.758	0.531	0.303	0.456	0.903	0.209
C[C@@H]1COCCN1c1cc(C2([S@](C)(=N)=O)CC2)nc(-c2ccnc3[nH]ccc23)n1 [AZD6738] + C1CC(C1)(C(=O)[O-])C(=O)[O-].N.N.[Pt+2] [Carboplatin] (first compound max 10 µM, 7x7, partner max 10 µM)	0.674	0.463	0.26	0.854	0.4	0.817	0.564	0.779	0.638	0.477	0.531	0.674	0.536	0.801	0.865	0.537	0.264	0.502	0.635	0.392
Cc1cc2ncnn2cc1Nc1ncc2c(n1)n(C1CCOCC1)c(=O)n2C [AZD7648] + COc1cc([C@@H]2c3cc4c(cc3[C@@H](O[C@@H]3O[C@@H]5CO[C@@H](C)O[C@H]5[C@H](O)[C@H]3O)[C@H]3COC(=O)[C@H]23)OCO4)cc(OC)c1O [Etoposide] (first compound max 10 µM, 7x7, partner max 10 µM)	0.698	0.387	0.362	0.943	0.658	0.792	0.999	0.871	0.829	0.503	0.495	0.67	0.577	0.988	0.933	0.379	0.312	0.775	1	0.399
C[C@@H](Nc1cc(F)cc(F)c1)c1cc(C(=O)N(C)C)cc2c(=O)cc(N3CCOCC3)oc12 [AZD8186] + C1CN(CCC1(C(=O)N[C@@H](CCO)C2=CC=C(C=C2)Cl)N)C3=NC=NC4=C3C=CN4 [AZD5363] (first compound max 10 µM, 7x7, partner max 10 µM)	0.564	0.457	0.301	0.428	0.472	0.161	0.147	0.347	0.193	0.426	0.499	0.522	0.581	1	0.151	0.275	0.312	0.408	0.679	0.386
C[C@@H](Nc1cc(F)cc(F)c1)c1cc(C(=O)N(C)C)cc2c(=O)cc(N3CCOCC3)oc12 [AZD8186] + CC(=O)c1c(C)c2cnc(Nc3ccc(N4CCNCC4)cn3)nc2n(C2CCCC2)c1=O [Palbociclib] (first compound max 10 µM, 7x7, partner max 10 µM)	0.688	0.422	0.315	0.525	0.468	0.582	0.081	0.311	0.502	0.376	0.542	0.742	0.519	0.99	0.813	0.374	0.283	0.337	0.909	0.42
C[C@@H](Oc1cc(-c2cnn(C3CCNCC3)c2)cnc1N)c1c(Cl)ccc(F)c1Cl [Crizotinib] + CC1=C(C(=CC=C1)Cl)NC(=O)C2=CN=C(S2)NC3=CC(=NC(=N3)C)N4CCN(CC4)CCO [Dasatinib] (first compound max 10 µM, 7x7, partner max 2 µM)	0.659	0.812	0.825	0.639	0.591	1	0.452	0.792	0.494	0.885	0.342	0.881	0.921	0.999	0.95	0.306	0.127	0.829	0.839	0.846
C[C@@H](Oc1cc(-c2cnn(C3CCNCC3)c2)cnc1N)c1c(Cl)ccc(F)c1Cl [Crizotinib] + Cn1cnc2c(F)c(Nc3ccc(Br)cc3Cl)c(C(=O)NOCCO)cc21 [Selumetinib] (first compound max 10 µM, 7x7, partner max 10 µM)	0.616	0.461	0.759	0.997	0.527	1	0.508	0.441	0.38	0.82	0.4	0.916	0.374	1	0.936	0.37	0.208	0.257	0.755	0.174
O=C(c1cc(Cc2n[nH]c(=O)c3ccccc23)ccc1F)N1CCN(C(=O)C2CC2)CC1 [Olaparib] + CC1(C)CCC(CN2CCN(c3ccc(C(=O)NS(=O)(=O)c4ccc(NCC5CCOCC5)c([N+](=O)[O-])c4)c(Oc4cnc5[nH]ccc5c4)c3)CC2)=C(c2ccc(Cl)cc2)C1 [Venetoclax] (first compound max 10 µM, 7x7, partner max 1 µM)	0.119	0.101	0.177	0.427	0.262	0.403	0.862	0.302	0.222	0.118	0.231	0.226	0.168	0.21	0.217	0.118	0.0923	0.291	0.943	0.0266
